Data on 26 compounds can be found in patent US10874743B2, “IRAK degraders and uses thereof” (Kymera Therapeutics, Inc., priority 2017, dated 2020).

Holding throughout (assay type): cell-based
One assay relates to OCI-LY10 cells. Put plainly: OCI-LY-10 CTG cell viability assay (EC50). Conditions: Homo sapiens, 96 h, CellTiter-Glo cell viability, 4 days incubation, top concentration 10 μM, read-out: OCI-LY10 IRAK4 EC50. As for the experimental part: A CTG cell viability assay using OCI-LY-10 cells was run to determine compound-mediated cell viability (EC50).
Compound-mediated viability effect on OCI-LY10 was quantitatively determined using the CellTiter-Glo® Luminescent Cell Viability Assay kit from Promega (Catalog number G7570) following manufacturer's recommended procedures. […] Compounds were then added to the assay plate with final top concentration of 10 μM and 1:3 dilution series with total of 9 doses. The final DMSO concentration was normalized to 0.2%. The assay plates were incubated at 37° C. for 4 days under 5% CO2. Then the assay plate was equilibrated at room temperature for 10 minutes. […] The data was then analyzed by software Prism 7.0 from GraphPad and the dose response curves were fit using a three-parameter logistic equation to calculate EC50.
For orientation: Cellular ATP, detected with luciferase, serves as a proxy for viable cell number.

Assay [1] has as its target T1, IRAK4 (Homo sapiens, UniProt Q9NWZ3).
T1 sequence (Q9NWZ3 1-460): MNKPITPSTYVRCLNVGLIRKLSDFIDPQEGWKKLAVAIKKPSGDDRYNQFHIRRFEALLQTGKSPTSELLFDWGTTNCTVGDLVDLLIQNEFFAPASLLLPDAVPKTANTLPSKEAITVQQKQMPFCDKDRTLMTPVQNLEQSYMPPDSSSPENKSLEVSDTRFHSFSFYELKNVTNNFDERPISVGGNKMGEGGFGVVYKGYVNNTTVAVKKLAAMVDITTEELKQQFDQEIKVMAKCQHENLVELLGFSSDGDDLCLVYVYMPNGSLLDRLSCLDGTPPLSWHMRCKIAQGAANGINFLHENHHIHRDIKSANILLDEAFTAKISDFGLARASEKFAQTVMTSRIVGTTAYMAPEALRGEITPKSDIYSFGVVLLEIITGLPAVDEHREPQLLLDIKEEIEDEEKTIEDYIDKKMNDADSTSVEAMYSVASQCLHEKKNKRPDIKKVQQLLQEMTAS
Briefly: OCI-LY-10 MSD assay for IRAK4 DC50. Set-up: endogenous in cells; host or cells: OCI-LY10. Conditions: OCI-LY10 cells, 4 hr incubation, concentration required to degrade 50% of protein. Put shortly:
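OCI-Ly10 cells were exposed to compound for 4 hr across a 3-fold, 8-point dilution series. Lysates were made in RIPA buffer, and IRAK4 remaining was measured by MSD sandwich immunoassay with anti-IRAK4 capture and detection antibodies. DC50 was taken from a four-parameter logistic fit.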

The target in assay [2] is T1, IRAK4. Put plainly: OCI-LY-10 degradation assay (western blot, % IRAK4 degraded after 4 hours). Set-up: endogenous in cells; host or cells: OCI-LY10. Conditions: OCI-LY10 cells, 4 hours; for OCI-LY10 % IRAK4 Degradation (0.01 uM): 0.01 uM compound; for OCI-LY10 % IRAK4 Degradation (0.1 uM): 0.1 uM compound; for OCI-LY10 % IRAK4 Degradation (1 uM): 1 uM compound. Put shortly: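 OCI-LY10 cells (RPMI-1640, 20% FBS, 55 μM 2-ME) treated with compound at 0.003-10 μM final for 4 h at 37° C, then lysed in RIPA buffer. IRAK4 level read by fluorescent western blot (20-25 μg protein) and binned as % degraded: A >50%, B >20-50%, C <20%.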

What is called EC50 is the midpoint of the concentration-response curve. As to `Cn1c(=O)n(C2CCC(=O)NC2=O)c2ccc(CCCOCCNCc3ccc(-n4cc(NC(=O)c5coc(-c6ccnc(NCC7CC7)c6)n5)c(C(F)F)n4)cc3)cc21` (centres unmarked) [I-531], the EC50 in the assay with OCI-LY10 cells is less than 50 nM.

In the case of `Cc1ncsc1-c1ccc(CNC(=O)[C@@H]2C[C@@H](O)CN2C(=O)[C@@H](NC(=O)COCCOCCOCCOCCOCC(=O)N2CCN(c3ccn4ncc(C(=O)Nc5cn(C)nc5C(F)F)c4n3)CC2)C(C)(C)C)cc1` [I-484], the 50% effective concentration (EC50) in the assay on OCI-LY10 cells was greater than 1000 nM. Consider `Cn1c(=O)n(C2CCC(=O)NC2=O)c2cccc(CCCOCCOCCNCc3ccc(-n4cc5c(n4)CCCN5C(=O)c4coc(-c5ccnc(NCC(F)(F)F)c5)n4)cc3)c21` (centres unmarked) [I-528], for which the EC50 in the assay on OCI-LY10 cells was greater than 1000 nM. Still for that read-out and setting: with `CN1CCN(C(=O)c2nn(-c3ccc(C(=O)NCCCCOCCCCc4ccc5c(c4)n(C)c(=O)n5C4CCC(=O)NC4=O)cc3)cc2NC(=O)c2coc(-c3ccnc(NCC(F)(F)F)c3)n2)CC1` (centres unmarked) [I-481] the figure was 50 to 100 nM; with `O=C1CCC(N2C[C@H](c3cccc(C#CCCOCCCNCc4ccc(-n5cc(NC(=O)c6coc(-c7ccnc(NCC8CC8)c7)n6)c(C(F)F)n5)cc4)c3)OC2=O)C(=O)N1` (some centres unmarked) [I-581], 100 to 500 nM; with `Cn1cc(NC(=O)c2cnn3ccc(N4CCN(C(=O)COCCOCCOCCOCCCc5ccc6c(c5)n(C)c(=O)n6C5CCC(=O)NC5=O)CC4)nc23)c(C(F)F)n1` (centres unmarked) [I-466], greater than 1000 nM. `CN1C(=O)CCC(n2c(=O)n(C)c3c(CCCOCCOCCNCc4ccc(-n5cc(NC(=O)c6coc(-c7ccnc(NCC8CC8)c7)n6)c(C(F)F)n5)cc4)cccc32)C1=O` (centres unmarked) [I-596]: in the assay with OCI-LY10 cells, the EC50 was greater than 1000 nM. Same read-out and setting: the same measure for `Cn1cc(NC(=O)c2cnn3ccc(N4CCN(C(=O)COCCOCCOCCNc5cccc6c5C(=O)N(C5CCC(=O)NC5=O)C6=O)CC4)nc23)c(C(F)F)n1` (centres unmarked) [I-468]: greater than 1000 nM. On the same count and under the same terms, with `CN(C)CCNC(=O)c1nn(-c2ccc(CNCCCCOCCCCc3ccc4c(c3)n(C)c(=O)n4C3CCC(=O)NC3=O)cc2)cc1NC(=O)c1coc(-c2ccnc(NCC(F)(F)F)c2)n1` (centres unmarked) [I-560] the figure was greater than 1000 nM.

Regarding `Cc1ncsc1-c1ccc(CNC(=O)[C@@H]2C[C@@H](O)CN2C(=O)[C@@H](NC(=O)COCCOCCOCC(=O)N2CCN(c3ccn4ncc(C(=O)Nc5cn(C)nc5C(F)F)c4n3)CC2)C(C)(C)C)cc1` [I-485], the concentration for a half-maximal effect (EC50) in the assay on OCI-LY10 cells was greater than 1000 nM. As to `Cn1c(=O)n(C2CCC(=O)NC2=O)c2ccc(CCCN3CCO[C@H](CNCc4ccc(-n5cc(NC(=O)c6coc(-c7ccnc(NCC8CC8)c7)n6)c(C(F)F)n5)cc4)C3)cc21` (some centres unmarked) [I-573], the EC50 with OCI-LY10 cells was greater than 1000 nM.

`Cn1cc(NC(=O)c2cnn3ccc(N4CCN(C(=O)COCCOCCCc5ccc6c(c5)n(C)c(=O)n6C5CCC(=O)NC5=O)CC4)nc23)c(C(F)F)n1` (centres unmarked) [I-469]: the EC50 with OCI-LY10 cells was greater than 1000 nM. Still for that read-out and setting: with `Cc1ncsc1-c1ccc(CNC(=O)[C@@H]2C[C@@H](O)CN2C(=O)[C@@H](NCCOCCOCCOCCNCc2nn(C)cc2NC(=O)c2coc(-c3ccnc(NCC(F)(F)F)c3)n2)C(C)(C)C)cc1` [I-524] the figure was greater than 1000 nM. On to `Cn1cc(NC(=O)c2coc(-c3ccnc(NCC(F)(F)F)c3)n2)c(-c2cncc(CNCCOCCOCCCc3cccc4c3n(C)c(=O)n4C3CCC(=O)NC3=O)c2)n1` (centres unmarked) [I-541], for which the EC50 in the assay with OCI-LY10 cells was greater than 1000 nM. `Cn1cc(NC(=O)c2cnn3ccc(N4CCN(C(=O)COCCOCCOCCOCCCc5cccc6c5n(C)c(=O)n6C5CCC(=O)NC5=O)CC4)nc23)c(C(F)F)n1` (centres unmarked) [I-465]: the concentration giving a half-maximal response (EC50) with OCI-LY10 cells is greater than 1000 nM. Same read-out and setting: with `Cn1c(=O)n(C2CCC(=O)NC2=O)c2ccc(CCCC(C)(O)CCCNCc3ccc(-n4cc(NC(=O)c5coc(-c6ccnc(NCC7CC7)c6)n5)c(C(F)F)n4)cc3)cc21` (centres unmarked) [I-540] the figure was less than 50 nM.

On to `Cn1cc(NC(=O)c2cnn3ccc(N4CCNCC4)nc23)c(C(=O)NCCOCCOCCOCCNc2cccc3c2C(=O)N(C2CCC(=O)NC2=O)C3=O)n1` (centres unmarked) [I-471], for which, in the assay with OCI-LY10 cells, the EC50 was greater than 1000 nM. For `N#Cc1nn(-c2ccc(CNCCOCCOCCCc3ccc4c(c3)oc(=O)n4C3CCC(=O)NC3=O)cc2)cc1NC(=O)c1coc(-c2ccnc(NCC3CC3)c2)n1` (centres unmarked) [I-538], in the assay on OCI-LY10 cells, the concentration giving a half-maximal response (EC50) is greater than 1000 nM. Take `CN(CCCCOCCCCc1ccc2c(c1)n(C)c(=O)n2C1CCC(=O)NC1=O)Cc1ccc(-n2cc(NC(=O)c3coc(-c4ccnc(NCC(F)(F)F)c4)n3)c(C(N)=O)n2)cc1` (centres unmarked) [I-578]: the EC50 in the assay with OCI-LY10 cells was in the range of 500 to 1000 nM. As usually defined, the DC50 is the concentration giving 50% degradation. Low values mean a more potent degrader, high ones a less potent degrader. On to `NC(=O)c1nn(-c2ccc(COCC3CN(CCOCCNc4cccc5c4C(=O)N(C4CCC(=O)NC4=O)C5=O)CCO3)cc2)cc1NC(=O)c1coc(-c2ccnc(NCC(F)(F)F)c2)n1` (centres unmarked) [I-302, N-[3-carbamoyl-1-[4-[[4-[2-[2-[[2-(2,6-dioxo-3-piperidyl)-1,3-dioxo-isoindolin-4-yl]amino]ethoxy]ethyl]morpholin-2-yl]methoxymethyl]phenyl]pyrazol-4-yl]-2-[2-(2,2,2-trifluoroethylamino)-4-pyridyl]oxazole-4-carboxamide], for which the DC50 on IRAK4 [1] is less than 50 nM. In addition, at IRAK4 [2], the “OCI-LY10 % IRAK4 Degradation (0.01 uM)” value is “B (>20-50% degradation)”, the “OCI-LY10 % IRAK4 Degradation (0.1 uM)” value is “A (>50% degradation)” and the “OCI-LY10 % IRAK4 Degradation (1 uM)” value is “A (>50% degradation)”.

At IRAK4 [1], `NC(=O)c1nn(-c2ccc(C(=O)NCC3CCCCN3CCOCCNc3cccc4c3C(=O)N(C3CCC(=O)NC3=O)C4=O)cc2)cc1NC(=O)c1coc(-c2ccnc(NCC(F)(F)F)c2)n1` (centres unmarked) [I-219] gave a half-maximal degradation concentration (DC50) of less than 50 nM. For the same compound, at IRAK4 [2], the “OCI-LY10 % IRAK4 Degradation (0.01 uM)” value is “A (>50% degradation)”, the “OCI-LY10 % IRAK4 Degradation (0.1 uM)” value is recorded as “A (>50% degradation)” and the “OCI-LY10 % IRAK4 Degradation (1 uM)” value is “A (>50% degradation)”.

As for `NC(=O)c1nn(-c2ccc(CNCCOCCOCCN3CCC(Nc4cccc5c4C(=O)N(C4CCC(=O)NC4=O)C5=O)CC3)cc2)cc1NC(=O)c1coc(-c2ccnc(NCC3CC3)c2)n1` (centres unmarked) [I-395], the DC50 at IRAK4 [1] is greater than 1000 nM. Besides, on IRAK4 [2], the “OCI-LY10 % IRAK4 Degradation (0.01 uM)” value is “C (<20% degradation)”, the “OCI-LY10 % IRAK4 Degradation (0.1 uM)” value is reported as “B (>20-50% degradation)” and the “OCI-LY10 % IRAK4 Degradation (1 uM)” value was “B (>20-50% degradation)”. Consider `O=C1CCC(N2C(=O)c3ccc(N4CCN(CCOCCNCc5ccc(-n6cc(NC(=O)c7coc(-c8ccnc(NCC9CC9)c8)n7)c(C(F)F)n6)cc5)CC4)cc3C2=O)C(=O)N1` (centres unmarked) [I-393], for which the DC50 at IRAK4 [1] lay in the range of 100 to 500 nM. Moreover, on IRAK4 [2], the “OCI-LY10 % IRAK4 Degradation (0.01 uM)” value is on record as “C (<20% degradation)”, the “OCI-LY10 % IRAK4 Degradation (0.1 uM)” value is on record as “A (>50% degradation)” and the “OCI-LY10 % IRAK4 Degradation (1 uM)” value was “A (>50% degradation)”. As to `Cn1cc(-c2nc(C(=O)Nc3cn(-c4ccc(CNCCOCCOCCNc5cccc6c5C(=O)N(C5CCC(=O)NC5=O)C6=O)cc4)nc3C(F)F)co2)cn1` (centres unmarked) [I-352], the 50% degradation concentration (DC50) at IRAK4 [1] is greater than 1000 nM. For the same compound, at IRAK4 [2], the “OCI-LY10 % IRAK4 Degradation (0.01 uM)” value is given as “C (<20% degradation)”, the “OCI-LY10 % IRAK4 Degradation (0.1 uM)” value is “C (<20% degradation)” and the “OCI-LY10 % IRAK4 Degradation (1 uM)” value is “C (<20% degradation)”. As for `CN(CCOCCOCCCc1cccc2c1C(=O)N(C1CCC(=O)NC1=O)C2=O)C(=O)c1ccc(-n2cc(NC(=O)c3coc(-c4ccnc(NCC5CC5)c4)n3)c(C(F)F)n2)cc1` (centres unmarked) [I-225], the DC50 on IRAK4 [1] was less than 50 nM. On IRAK4 [2], the “OCI-LY10 % IRAK4 Degradation (0.01 uM)” value was “C (<20% degradation)”, the “OCI-LY10 % IRAK4 Degradation (0.1 uM)” value was “A (>50% degradation)” and the “OCI-LY10 % IRAK4 Degradation (1 uM)” value is given as “A (>50% degradation)”.

Compound `NC(=O)c1nn(CCOCCOCCOCCOCCNc2cccc3c2C(=O)N(C2CCC(=O)NC2=O)C3=O)cc1NC(=O)c1coc(-c2ccnc(NCC3CC3)c2)n1` (centres unmarked) [I-240] registered a DC50 on IRAK4 [1] greater than 1000 nM. In addition, on IRAK4 [2], the “OCI-LY10 % IRAK4 Degradation (0.01 uM)” value is on record as “B (>20-50% degradation)”, the “OCI-LY10 % IRAK4 Degradation (0.1 uM)” value is given as “B (>20-50% degradation)” and the “OCI-LY10 % IRAK4 Degradation (1 uM)” value is given as “B (>20-50% degradation)”.
